According to US9296759B2, “Amino-oxazine and amino-dihydrothiazine compounds as beta-secretase modulators and methods of use” (AMGEN INC., priority 2011, dated 2016):

Tests used:
Cathepsin D = Cathepsin D (Homo sapiens (Human), UniProt P07339); assay: In vitro enzymatic Cat D (Cathepsin D) FRET assay; type: biochemical; conditions: average IC50
Experimental: In Vitro Enzymatic Cat D (Cathepsin D) FRET (Fluorescence Resonance Energy Transfer) Assay
Recombinant CathepsinD was expressed in CHO cells. The assay buffer for CathepsinD is 0.05 M citrate pH 3.5, 10% DMSO final, 5 mM CHAPS. […] The assays are effectively started by the addition of different FRET substrates (20 nM for CathepsinD) and the combination is incubated for one hour. The FRET assay is terminated with by addition of Tris buffer, which raises the pH to neutrality, and the fluorescence is determined. The FRET substrate is a peptide with commercially available fluorophore and quencher, on opposite sides of the BACE cleavage site. […] Proteolytic cleavage of the FRET substrate releases quenching of fluorescence (CathepsinD excitation 500 nm and emission 580 nm).

[1] = tested on: Aβ40 in conditioned medium of cells stably expressing Amyloid Precursor Protein (APP); assay: In vitro BACE cell-based assay (HEK cell assay, Aβ40 sandwich ELISA); conditions: average IC50, Aβ40, 24 h incubation
Experimental: In Vitro BACE Cell-Based Assay
The cell-based assay measures inhibition or reduction of Aβ40 in conditioned medium of test compound treated cells expressing amyloid precursor protein.
Cells stably expressing Amyloid Precursor Protein (APP) were plated at a density of 40K cells/well in 96 well plates (Costar). The cells were cultivated for 24 hours at 37° C. and 5% CO2 in DMEM supplemented with 10% FBS. The test compounds were then added to cells in 10-point dose response concentrations with the starting concentration being either 100 μM or 10 μM. The compounds were diluted from stock solutions in DMSO and the final DMSO concentration of the test compounds on cells was 0.1%. After 24 h of incubation with the test compounds the supernatant conditioned media was collected and the Aβ 40 levels were determined using a sandwich ELISA. The IC50 of the compound was calculated from the percent of control or percent inhibition of Aβ 40 as a function of the concentration of the test compound.
The sandwich ELISA to detect Aβ 40 was performed in 96 well microtiter plates, which were pre-treated with goat anti-rabbit IgG (Pierce). The capture and detecting antibody pair that were used to detect Aβ 40 from cell supernatants were affinity purified pAb40 (Biosource) and biotinylated 6E10 (Signet Labs Inc.), respectively. The optimal concentration for the pAb40 antibody was 3 μg/ml in Superblock/TBS (Pierce) that was supplemented with 0.05% Tween 20 (Sigma).
Cellular supernatants were incubated with the capture antibody for 3 h at 4° C., followed by 3 wash steps in TBS-tween (0.05%). The detecting antibody incubation was for 2 h at 4° C., again followed by the wash steps as described previously. The final readout of the ELISA is Time-Resolved Fluorescence (counts per minute) using Delfia reagents Streptavidin-Europium and Enhancement solutions (Perkin Elmer) and the Victor 2 multilabel counter (Perkin Elmer).

[2] = molecular target: BACE 1 (beta secretase enzyme) (Homo sapiens (Human), UniProt P56817); assay: In vitro enzymatic BACE FRET assay; type: biochemical; conditions: average IC50
Experimental: In Vitro Enzymatic BACE FRET (Fluorescence Resonance Energy Transfer) Assay
The assay buffer used in this screen is 0.05 M acetate, pH 4.2, 10% DMSO final, 100 uM genapol (which is a nonionic detergent, below its Critical Micelle Concentration). […] This assay is effectively started by the addition of FRET substrate (50 nM) and the combination is incubated for one hour. The FRET assay is terminated with by addition of Tris buffer, which raises the pH to neutrality, and the fluorescence is determined. The FRET substrate is a peptide with commercially available fluorophore and quencher, on opposite sides of the BACE cleavage site. Proteolytic cleavage of the FRET substrate releases quenching of fluorescence (excitation […] and […]).

Sequence of Cathepsin D (P07339 65-412, species assumed): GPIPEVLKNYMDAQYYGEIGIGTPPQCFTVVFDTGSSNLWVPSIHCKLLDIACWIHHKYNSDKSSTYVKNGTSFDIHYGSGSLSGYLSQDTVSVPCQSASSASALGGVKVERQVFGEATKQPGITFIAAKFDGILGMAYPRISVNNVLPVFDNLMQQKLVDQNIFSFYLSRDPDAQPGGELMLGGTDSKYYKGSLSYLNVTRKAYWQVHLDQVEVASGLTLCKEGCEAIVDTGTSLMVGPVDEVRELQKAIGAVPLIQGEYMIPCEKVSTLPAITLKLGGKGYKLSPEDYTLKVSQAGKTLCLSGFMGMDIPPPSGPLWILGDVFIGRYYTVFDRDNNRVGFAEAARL
Sequence of BACE 1 (beta secretase enzyme) (P56817 46-501): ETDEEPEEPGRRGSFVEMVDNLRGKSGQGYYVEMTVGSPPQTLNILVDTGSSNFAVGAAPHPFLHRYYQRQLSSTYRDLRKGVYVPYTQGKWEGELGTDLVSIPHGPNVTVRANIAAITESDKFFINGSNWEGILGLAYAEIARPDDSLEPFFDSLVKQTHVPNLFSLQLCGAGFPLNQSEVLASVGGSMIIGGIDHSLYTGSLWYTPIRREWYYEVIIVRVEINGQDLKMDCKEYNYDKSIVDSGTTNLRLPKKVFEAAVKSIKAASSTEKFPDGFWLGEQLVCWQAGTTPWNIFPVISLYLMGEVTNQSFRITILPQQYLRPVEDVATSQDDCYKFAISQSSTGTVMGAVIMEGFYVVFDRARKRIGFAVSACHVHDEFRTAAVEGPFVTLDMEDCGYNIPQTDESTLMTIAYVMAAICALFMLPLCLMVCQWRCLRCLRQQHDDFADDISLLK

SMILES | IC50 (Cathepsin D) | IC50 ([1]; Homo sapiens, HEK293) | IC50 [2] | IC50 [1]
NC1=N[C@@]2(CCS1)c1cc(NC(=O)c3ccc(F)cn3)ccc1Oc1c2cc(-c2ccnc(F)c2)nc1F [Example 118, N-((5S)-2′-amino-1-fluoro-3-(2-fluoro-4-pyridinyl)-5′,6′-dihydrospiro[chromeno[2,3-c]pyridine-5,4′-[1,3]thiazin]-7-yl)-5-fluoro-2-pyridinecarboxamide] | 400 µM | 0.0042 µM | 0.0015 µM | 
COc1cnc(C(=O)Nc2ccc3c(c2)[C@@]2(CCOC(N)=N2)c2cc(Br)cnc2O3)cn1 [Example 44, N-((5S)-2′-amino-3-bromo-5′,6′-dihydrospiro[chromeno[2,3-b]pyridine-5,4′-[1,3]oxazin]-7-yl)-5-methoxy-2-pyrazinecarboxamide] | > 1.65 µM | 0.011 µM | 0.0476 µM | 
COc1cc(F)c2c(c1)[C@]1(CCOC(N)=N1)c1cc(NC(=O)c3ccc(Cl)cc3F)ccc1O2 [Example 76, N-((4S)-2-amino-5′-fluoro-7′-methoxy-5,6-dihydrospiro[1,3-oxazine-4,9′-xanthen]-2′-yl)-4-chloro-2-fluorobenzamide] | 400 µM | 0.206 µM | 0.181 µM | 
COc1ccc(C(=O)Nc2ccc3c(c2)[C@@]2(CCSC(N)=N2)c2cc(O)cc(F)c2O3)nc1 [Example 105, N-((4S)-2-amino-5′-fluoro-7′-hydroxy-5,6-dihydrospiro[1,3-thiazine-4,9′-xanthen]-2′-yl)-5-methoxy-2-pyridinecarboxamide] | 225 µM | 0.0823 µM | 0.0294 µM | 
COc1nc(C2=CCOCC2)cc2c1Oc1ccc(NC(=O)c3ccc(Cl)cn3)cc1[C@@]21CCOC(N)=N1 [Example 62, N-((5S)-2′-amino-3-(3,6-dihydro-2H-pyran-4-yl)-1-methoxy-5′,6′-dihydrospiro[chromeno[2,3-c]pyridine-5,4′-[1,3]oxazin]-7-yl)-5-chloro-2-pyridinecarboxamide] | 400 µM | 0.0036 µM | 0.007 µM | 
COc1cnc(C(=O)Nc2ccc3c(c2)[C@@]2(CCSC(N)=N2)c2cc(N4CCOCC4)cc(F)c2O3)cn1 [Example 110, N-((4S)-2-amino-5′-fluoro-7′-(4-morpholinyl)-5,6-dihydrospiro[1,3-thiazine-4,9′-xanthen]-2′-yl)-5-methoxy-2-pyrazinecarboxamide] | 229 µM | 0.0077 µM | 0.0153 µM | 
CCOc1cccnc1Nc1ccc2c(c1)[C@@]1(CCSC(N)=N1)c1cc(OC)cc(F)c1O2 [Example 33, (4S)-N~2~′-(3-ethoxy-2-pyridinyl)-5′-fluoro-7′-methoxy-5,6-dihydrospiro[1,3-thiazine-4,9′-xanthene]-2,2′-diamine] | 262 µM |  | 0.0486 µM | 0.0659 µM
N#Cc1ccc(C(=O)Nc2ccc3c(c2)[C@@]2(CCOC(N)=N2)c2cc(Cl)nc(F)c2O3)nc1 [Example 46, N-((5S)-2′-amino-3-chloro-1-fluoro-5′,6′-dihydrospiro[chromeno[2,3-c]pyridine-5,4′-[1,3]oxazin]-7-yl)-5-cyano-2-pyridinecarboxamide] | > 400 µM | 0.023 µM | 0.007 µM | 
COc1cc(F)c2c(c1)[C@]1(CCSC(N)=N1)c1cc(NC(=O)c3cnc(OC)cn3)ccc1O2 [Example 50, N-((4S)-2-amino-5′-fluoro-7′-methoxy-5,6-dihydrospiro[1,3-thiazine-4,9′-xanthen]-2′-yl)-5-methoxy-2-pyrazinecarboxamide] | > 400 µM | 0.0465 µM | 0.0405 µM | 
NC1=N[C@@]2(CCO1)c1cc(NC(=O)c3ccc(Cl)cn3)ccc1Oc1ncccc12 [Example 36, N-((5S)-2′-amino-5′,6′-dihydrospiro[chromeno[2,3-b]pyridine-5,4′-[1,3]oxazin]-7-yl)-5-chloro-2-pyridinecarboxamide] | > 400 µM | 0.0148 µM | 0.0451 µM | 
COc1ccc(C(=O)Nc2ccc3c(c2)[C@@]2(CCSC(N)=N2)c2cc(N4CCOCC4)cc(F)c2O3)nc1 [Example 107, N-((4S)-2-amino-5′-fluoro-7′-(4-morpholinyl)-5,6-dihydrospiro[1,3-thiazine-4,9′-xanthen]-2′-yl)-5-methoxy-2-pyridinecarboxamide] | 326 µM | 0.0087 µM | 0.0078 µM | 
NC1=N[C@@]2(CCO1)c1cc(NC(=O)c3cnc(O)cn3)ccc1Oc1ncc(Br)cc12 [Example 43, N-((5S)-2′-amino-3-bromo-5′,6′-dihydrospiro[chromeno[2,3-b]pyridine-5,4′-[1,3]oxazin]-7-yl)-5-hydroxy-2-pyrazinecarboxamide] | > 4.94 µM | 1.66 µM | 0.113 µM | 

Further compounds by falling IC50 (Cathepsin D), results first:

IC50 (Cathepsin D) | IC50 ([1]; Homo sapiens, HEK293) | IC50 [2] | IC50 [1] | SMILES
174 µM | 0.0043 µM | 0.0062 µM |  | COc1cnc(C(=O)Nc2ccc3c(c2)[C@@]2(CCSC(N)=N2)c2cc(C4=CCOCC4)cc(F)c2O3)cn1 [Example 60, N-((4S)-2-amino-7′-(3,6-dihydro-2H-pyran-4-yl)-5′-fluoro-5,6-dihydrospiro[1,3-thiazine-4,9′-xanthen]-2′-yl)-5-methoxy-2-pyrazinecarboxamide]
162 µM | 0.0022 µM | 0.0004 µM |  | COc1ccc(C(=O)Nc2ccc3c(c2)[C@@]2(CCSC(N)=N2)c2cc(-c4ccnc(F)c4)nc(F)c2O3)nc1 [Example 115, N-((5S)-2′-amino-1-fluoro-3-(2-fluoro-4-pyridinyl)-5′,6′-dihydrospiro[chromeno[2,3-c]pyridine-5,4′-[1,3]thiazin]-7-yl)-5-methoxy-2-pyridinecarboxamide]
159 µM | 0.0018 µM | 0.0054 µM |  | COc1cnc(C(=O)Nc2ccc3c(c2)[C@@]2(CCSC(N)=N2)c2cc(C4=CCOCC4)nc(F)c2O3)c(C)c1 [Example 121, N-((5S)-2′-amino-3-(3,6-dihydro-2H-pyran-4-yl)-1-fluoro-5′,6′-dihydrospiro[chromeno[2,3-c]pyridine-5,4′-[1,3]thiazin]-7-yl)-5-methoxy-3-methyl-2-pyridinecarboxamide]
133 µM | 0.0008 µM | 0.0029 µM |  | Cc1cc(Cl)cnc1C(=O)Nc1ccc2c(c1)[C@@]1(CCSC(N)=N1)c1cc(C3=CCOCC3)nc(F)c1O2 [Example 122, N-((5S)-2′-amino-3-(3,6-dihydro-2H-pyran-4-yl)-1-fluoro-5′,6′-dihydrospiro[chromeno[2,3-c]pyridine-5,4′-[1,3]thiazin]-7-yl)-5-chloro-3-methyl-2-pyridinecarboxamide]
132 µM | 0.0005 µM | 0.002 µM |  | N#Cc1ccc(C(=O)Nc2ccc3c(c2)[C@@]2(CCOC(N)=N2)c2cc(C4=CCCOC4)nc(F)c2O3)nc1 [Example 52, N-((5S)-2′-amino-3-(5,6-dihydro-2H-pyran-3-yl)-1-fluoro-5′,6′-dihydrospiro[chromeno[2,3-c]pyridine-5,4′-[1,3]oxazin]-7-yl)-5-cyano-2-pyridinecarboxamide]
88.3 µM | 0.0005 µM | 0.0014 µM |  | Cc1cc(Br)cnc1C(=O)Nc1ccc2c(c1)[C@@]1(CCSC(N)=N1)c1cc(C3=CCOCC3)nc(F)c1O2 [Example 120, N-((5S)-2′-amino-3-(3,6-dihydro-2H-pyran-4-yl)-1-fluoro-5′,6′-dihydrospiro[chromeno[2,3-c]pyridine-5,4′-[1,3]thiazin]-7-yl)-5-bromo-3-methyl-2-pyridinecarboxamide]
69.9 µM | 3.09 µM | 0.913 µM |  | COc1cnc(C(=O)Nc2ccc3c(c2)[C@]2(CCSC(N)=N2)c2cc(Cl)nc(F)c2O3)cn1 [Example 55, N-((5R)-2′-amino-3-chloro-1-fluoro-5′,6′-dihydrospiro[chromeno[2,3-c]pyridine-5,4′-[1,3]thiazin]-7-yl)-5-methoxy-2-pyrazinecarboxamide]
